From PubChem BioAssay AID256 (DTP/NCI, 2004)
“And” between values parts separate entries of the source, which are not always exact repeats. Identical values can stand only once. Inconclusive results and toxic doses are left out. Residues, ends and D or L forms follow the SMILES beside them. *: point of attachment. Cbz = O=C(OCc1ccccc1)*; OtBu = CC(C)(C)O*

Test system: CD2F1 mice, L1210 leukemia ip, survival T/C
Experiment: NCI In Vivo Anticancer Drug Screen. Data for tumor model L1210 Leukemia (intraperitoneal) in CD2F1 (CDF1) mice
Settings: endpoint: mean survival time, higher = longer survival
Method in brief: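 Activity against a transplanted murine tumor was judged by comparing the compound group with a vehicle group. The outcome in the treated animals was divided by that in the controls.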

[1] = dose: 100.0 mg/kg/injection, schedule: Q01DX009 (ip), vehicle: Klucel (hydroxypropylcellulose) (HPC)
[2] = dose: 100.0 mg/kg/injection, schedule: Q04DX003 (ip), vehicle: saline
[3] = dose: 200.0 mg/kg/injection, schedule: Q04DX003 (ip), vehicle: saline
[4] = dose: 100.0 mg/kg/injection, schedule: Q04DX003 (ip), vehicle: saline with Tween-80
[5] = dose: 200.0 mg/kg/injection, schedule: Q04DX003 (ip), vehicle: saline with Tween-80
[6] = dose: 400.0 mg/kg/injection, schedule: Q04DX003 (ip), vehicle: saline with Tween-80
[7] = dose: 100.0 mg/kg/injection, schedule: Q01DX001 (ip), vehicle: saline with Tween-80
[8] = dose: 200.0 mg/kg/injection, schedule: Q01DX001 (ip), vehicle: saline with Tween-80
[9] = dose: 400.0 mg/kg/injection, schedule: Q01DX001 (ip), vehicle: saline with Tween-80
[10] = dose: 50.0 mg/kg/injection, schedule: Q01DX009 (ip), vehicle: saline
[11] = dose: 100.0 mg/kg/injection, schedule: Q01DX009 (ip), vehicle: saline with Tween-80
[12] = dose: 200.0 mg/kg/injection, schedule: Q01DX009 (ip), vehicle: saline with Tween-80

In the case of `CC(C)CC(=O)NC(C(=O)NC(C(=O)NC(CC(C)C)C(O)CC(=O)NC(C)C(=O)NC(CC(C)C)C(O)CC(=O)O)C(C)C)C(C)C` (stereo not drawn), the T/C (dose: 3.12 mg/kg/injection, schedule: Q01DX009 (ip), vehicle: Klucel (hydroxypropylcellulose) (HPC)) is reported as 96 % of control, the T/C (dose: 6.25 mg/kg/injection, schedule: Q01DX009 (ip), vehicle: Klucel (hydroxypropylcellulose) (HPC)) is reported as 100 % of control and the T/C (dose: 12.5 mg/kg/injection, schedule: Q01DX009 (ip), vehicle: Klucel (hydroxypropylcellulose) (HPC)) is reported as 96 % of control. For the same molecule, the T/C (dose: 25.0 mg/kg/injection, schedule: Q01DX009 (ip), vehicle: Klucel (hydroxypropylcellulose) (HPC)) was 100 % of control, the T/C (dose: 50.0 mg/kg/injection, schedule: Q01DX009 (ip), vehicle: Klucel (hydroxypropylcellulose) (HPC)) was 94 % of control and the T/C [1] was 97 % of control.

`CN(CCO)C1=C(N2CC2)C(=O)C(N(C)CCO)=C(N2CC2)C1=O` was tested, and the T/C (dose: 0.5 mg/kg/injection, schedule: Q01DX009 (ip), vehicle: saline) was 115 % of control and 117 % of control, the T/C (dose: 1.0 mg/kg/injection, schedule: Q01DX009 (ip), vehicle: saline) was 155 % of control and the T/C (dose: 1.5 mg/kg/injection, schedule: Q01DX009 (ip), vehicle: saline) was 201 % of control and 211 % of control.

For `CC(=O)Nc1ccc2c(c1)C(N1CC3CCC(CC3)C1)c1ccccc1-2` (stereo not drawn), the T/C (dose: 50.0 mg/kg/injection, schedule: Q04DX003 (ip), vehicle: saline) was 105 % of control, the T/C [2] was 103 % of control and the T/C [3] was 103 % of control.

With `O=C1OCC/C1=C1\CCCO1` the T/C [4] was 106 % of control, the T/C [5] was 101 % of control and the T/C [6] was 95 % of control.

In the case of `CC1=CC(O)(c2ccccc2)C(C)=CC1=O` (stereo not drawn), the T/C [7] is reported as 97 % of control, the T/C [8] is reported as 97 % of control and the T/C [9] is reported as 93 % of control.

`COc1ccc(C(=O)CC(=O)Nc2ccc([N+](=O)[O-])cc2)cc1` was tested, and the T/C [1] was 98 % of control, the T/C [4] was 107 % of control and the T/C (dose: 200.0 mg/kg/injection, schedule: Q01DX009 (ip), vehicle: Klucel (hydroxypropylcellulose) (HPC)) was 97 % of control. For the same molecule, the T/C [5] was 102 % of control, the T/C (dose: 400.0 mg/kg/injection, schedule: Q01DX009 (ip), vehicle: Klucel (hydroxypropylcellulose) (HPC)) was 97 % of control and the T/C [6] was 101 % of control.

In the case of `CCC(C)C(NC(=O)OCc1ccccc1)C(=O)NC(C(=O)NC(CCC(=O)OC(C)(C)C)C(=O)OC)C(C)C` (stereo not drawn) (Cbz-Ile-Val-Glu(OtBu)-OMe; configuration not given here), the T/C (dose: 100.0 mg/kg/injection, schedule: Q04DX003 (ip), vehicle: saline sonified) is reported as 88 % of control and the T/C (dose: 400.0 mg/kg/injection, schedule: Q04DX003 (ip), vehicle: saline sonified) is reported as 92 % of control.

For `O=c1[nH]c(=O)c2n[nH]nc2[nH]1`, the T/C (dose: 23.0 mg/kg/injection, schedule: Q01DX009 (ip), vehicle: saline) was 104 % of control, the T/C (dose: 35.0 mg/kg/injection, schedule: Q01DX009 (ip), vehicle: saline) was 101 % of control and the T/C [10] was 98 % of control.

In the case of `Cc1ccc(N=C2C=CC(=O)O2)cc1`, the T/C [4] is reported as 98 % of control, the T/C [5] is reported as 104 % of control and the T/C [6] is reported as 101 % of control.

For `O=[N+]([O-])c1ccc2nsnc2c1`, the T/C [7] was 103 % of control, the T/C [11] was 103 % of control and the T/C [8] was 106 % of control. The T/C [12] was 114 % of control and the T/C [9] was 107 % of control.

`COC(=O)COc1ccccc1Cl` was tested, and the T/C [7] was 102 % of control, the T/C [8] was 102 % of control and the T/C [9] was 104 % of control.

With `COc1ccc(NC(=O)Nc2ccccc2C(F)(F)F)cc1` the T/C [4] was 98 % of control, the T/C [5] was 96 % of control and the T/C [6] was 90 % of control.

With `O=C(O)CC1CCC(CC(=O)O)CC1` (stereo not drawn) the T/C [11] was 101 % of control, the T/C [12] was 104 % of control and the T/C (dose: 400.0 mg/kg/injection, schedule: Q01DX009 (ip), vehicle: saline with Tween-80) was 101 % of control.

In the case of `C[N+](C)(C)c1ncnc2c1ncn2C1CCCO1` (stereo not drawn), the T/C (dose: 12.5 mg/kg/injection, schedule: Q01DX009 (ip), vehicle: saline) is reported as 93 % of control, the T/C (dose: 25.0 mg/kg/injection, schedule: Q01DX009 (ip), vehicle: saline) is reported as 98 % of control and the T/C [10] is reported as 112 % of control. For the same molecule, the T/C (dose: 100.0 mg/kg/injection, schedule: Q01DX009 (ip), vehicle: saline) was 101 % of control.

In the case of `C=CCC1(C)C(=O)CCC2=C1CCc1c(OC)cccc12` (stereo not drawn), the T/C (dose: 100.0 mg/kg/injection, schedule: Q01DX001 (ip), vehicle: saline) is reported as 90 % of control, the T/C (dose: 200.0 mg/kg/injection, schedule: Q01DX001 (ip), vehicle: saline) is reported as 90 % of control and the T/C (dose: 400.0 mg/kg/injection, schedule: Q01DX001 (ip), vehicle: saline) is reported as 92 % of control.

With `CCCC(O)CNCc1ccc2c3c(cccc13)CC2` (stereo not drawn) the T/C (dose: 25.0 mg/kg/injection, schedule: Q01DX001 (ip), vehicle: Klucel (hydroxypropylcellulose) (HPC)) was 93 % of control and the T/C (dose: 50.0 mg/kg/injection, schedule: Q01DX001 (ip), vehicle: Klucel (hydroxypropylcellulose) (HPC)) was 101 % of control.

In the case of `CC(=O)NCC1CCN(C(C)=O)CC1`, the T/C [2] is reported as 94 % of control, the T/C [3] is reported as 96 % of control and the T/C (dose: 400.0 mg/kg/injection, schedule: Q04DX003 (ip), vehicle: saline) is reported as 96 % of control.
